Laboratory results taken from patent US8003783B2, “17B-hydroxysteroid dehydrogenase inhibitors” (Sterix Limited, priority 2004, dated 2011).
Like-named read-outs stand apart in the source and are kept apart here.

Columns and labels:
[1] = target: T1, 17β-HSD1 (Homo sapiens, UniProt P14061); test: 17β-HSD Type I activity in T-47D cells (E1→E2); assay type: cell-based; settings: for inhibition at 10 µM: T47D
T1 construct: was measured in intact cell monolayers of T47D and MDA-MB-231 breast cancer cells respectively; endogenous in cells; host or cells: T-47D human breast cancer cells
T1 sequence (P14061 1-328): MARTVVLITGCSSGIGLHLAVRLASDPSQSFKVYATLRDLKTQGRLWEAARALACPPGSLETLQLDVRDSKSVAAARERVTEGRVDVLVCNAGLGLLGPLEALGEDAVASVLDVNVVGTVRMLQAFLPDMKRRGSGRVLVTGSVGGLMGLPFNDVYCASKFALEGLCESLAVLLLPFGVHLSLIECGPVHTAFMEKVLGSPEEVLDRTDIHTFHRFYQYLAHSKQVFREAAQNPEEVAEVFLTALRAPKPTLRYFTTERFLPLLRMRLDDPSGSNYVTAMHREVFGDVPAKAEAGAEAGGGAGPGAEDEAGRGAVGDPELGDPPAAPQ

[2] = target: T2, 17β-HSD2 (Homo sapiens, UniProt P37059); test: 17β-HSD Type II activity in MDA-MB-231 cells (E2→E1); assay type: cell-based
T2 construct: was measured in intact cell monolayers of T47D and MDA-MB-231 breast cancer cells respectively; endogenous in cells; host or cells: MDA-MB-231 human breast cancer cells
T2 sequence (P37059 1-387): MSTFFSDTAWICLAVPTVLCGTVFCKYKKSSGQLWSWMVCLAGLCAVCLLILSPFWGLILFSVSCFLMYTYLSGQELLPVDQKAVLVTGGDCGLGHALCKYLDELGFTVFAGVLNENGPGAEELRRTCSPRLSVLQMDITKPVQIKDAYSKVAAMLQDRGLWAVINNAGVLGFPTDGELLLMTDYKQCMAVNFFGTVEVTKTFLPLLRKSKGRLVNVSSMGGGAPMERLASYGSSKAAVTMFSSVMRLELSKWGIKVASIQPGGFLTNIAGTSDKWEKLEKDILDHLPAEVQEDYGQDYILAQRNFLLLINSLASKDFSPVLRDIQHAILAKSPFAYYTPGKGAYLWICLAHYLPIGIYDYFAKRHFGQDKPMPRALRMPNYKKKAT

[3] = 10 μM, T-47D cells, E1→E2, read-out: % inhibition of 17β-HSD1 @ 10 μM
[4] = 10 μM, MDA-MB-231 cells, E2→E1, read-out: % inhibition of 17β-HSD2 @ 10 μM
[5] = read-out: % inhibition of 17β-HSD1 @ 10 μM, 10 μM, T-47D cells, E1→E2
[6] = MDA-MB-231, read-out: % inhibition of 17β-HSD2 @ 10 μM
[7] = T-47D cells, E1→E2, read-out: IC50 (17β-HSD1)

| Structure (SMILES) | inhibition at 10 µM [1, 3] [%] | inhibition at 10 µM [2, 4] [%] | also measured |
| --- | --- | --- | --- |
| C[C@]12CCC3c4ccc(O)cc4CCC3C1CC(CC(=O)Nc1nccs1)C2=O (stereo partly shown) [compound 746] | 30 | 16 | – |
| CC(C)/C=C1\CC2C3CCc4cc(O)ccc4C3CC[C@]2(C)C1=O (stereo partly shown) [compound 571] | 71 | 18 | – |
| CC(C)NC(=O)C1CC2C3CCc4cc(O)ccc4C3CC[C@]2(C)[C@H]1O (stereo partly shown) [compound 801] | – | – | inhibition at 10 µM [1, 5]: 70%; inhibition at 10 µM [2, 6]: -15% |
| C[C@]12CCC3c4ccc(OS(N)(=O)=O)cc4CCC3C1C/C(=C\c1ccccc1)C2=O (stereo partly shown) [compound 314] | -1 | 1 | – |
| Cc1cnc(CNC(=O)c2[nH]nc3c2CC2C4CCc5cc(O)ccc5C4CC[C@]32C)cn1 (stereo partly shown) [compound 896] | – | – | inhibition at 10 µM [1, 5]: 80%; inhibition at 10 µM [2, 6]: 61% |
| C[C@]12CCC3c4ccc(O)cc4CCC3C1CC(Cc1ccncc1)[C@@H]2O (stereo partly shown) [compound 543, 13-Methyl-16-pyridin-4-ylmethyl-7,8,9,11,12,13,14,15,16,17-decahydro-6H-cyclopenta[a]phenanthrene-3,17-diol] | 84 | 37 | – |
| COc1cc(/C=C2\CC3C4CCc5cc(O)ccc5C4CC[C@]3(C)C2=O)cc(OC)c1OC (stereo partly shown) [compound 328] | 24 | -12 | – |
| CN1CCN(C(=O)c2[nH]nc3c2CC2C4CCc5cc(O)ccc5C4CC[C@]32C)CC1 (stereo partly shown) [compound 897] | – | – | inhibition at 10 µM [1, 5]: 50%; inhibition at 10 µM [2, 6]: -0.7% |
| C[C@]12CCC3c4ccc(O)cc4CCC3C1CC(CC(=O)NCc1ccco1)[C@@H]2O (stereo partly shown) [compound 667] | 35 | 14 | – |
| C[C@]12CCC3c4ccc(O)cc4CCC3C1Cc1c2n[nH]c1CO (stereo partly shown) [compound 804] | 94 | -1 | IC50 [1, 7]: 0.95 µM |
| C[C@]12CCC3C4CC=C(O)C=C4CCC3C1CC(CC(=O)O)C2=O (stereo partly shown) [compound 604] | 13 | -5 | – |
| CC(C)NC(=O)c1[nH]nc2c1CC1C3CCc4cc(O)ccc4C3CC[C@]21C (stereo partly shown) [compound 857, 2-Hydroxy-6a-methyl-4b,5,6,6a,8,10,10a,10b,11,12-decahydro-7,8-diaza-pentaleno[2,1-a]phenanthrene-9-carboxylic acid isopropyl amide] | 57 | 0.3 | – |
| CO/N=C1\CC2C(CC[C@]3(C)/C(=N/OC)CCC23)c2ccc(O)cc21 (stereo partly shown) [compound 515] | 15 | 31 | – |
| C[C@]12CCC3c4ccc(O)cc4CCC3C1C/C(=C\c1ccc(C#N)cc1)[C@@H]2O (stereo partly shown) [compound 510] | 57 | 31 | – |
| C[C@]12CCC3c4ccc(O)cc4CCC3C1CC(CC(=O)NCC1CCCO1)[C@@H]2O (stereo partly shown) [compound 668] | 63 | 25 | – |
| CCC(O)C1CC2C3CCc4cc(O)ccc4C3CC[C@]2(C)C1=O (stereo partly shown) [compound 665] | 80 | -18 | – |
| CC(C)Cn1cc2c(n1)[C@@]1(C)CCC3c4ccc(O)cc4CCC3C1C2 (stereo partly shown) [compound 812] | – | – | inhibition at 10 µM [1, 5]: 77%; inhibition at 10 µM [2, 6]: 61% |
| CCOCC1CC2C3CCc4cc(O)ccc4C3CC[C@]2(C)C1=O (stereo partly shown) [compound 664] | 92 | 19 | IC50 [1]: 0.32 µM |
| C[C@]12CCC3c4ccc(O)cc4CCC3C1C/C(=C\c1ccc(C#N)cc1)C2=O (stereo partly shown) [compound 478] | 39 | 18 | – |
| C[C@]12CCC3c4ccc(O)cc4CCC3C1CC(CC(=O)NCc1ccco1)C2=O (stereo partly shown) [compound 672] | – | – | inhibition at 10 µM [1, 5]: 85%; inhibition at 10 µM [2, 6]: 3% |

| Structure (SMILES) | inhibition at 10 µM [1, 3] [%] | inhibition at 10 µM [2, 4] [%] | also measured |
| --- | --- | --- | --- |
| C[C@]12CCC3c4ccc(O)cc4CCC3C1CC(C(=O)NCc1ccco1)[C@@H]2O (stereo partly shown) [compound 679] | 87 | -9 | – |
| C[C@]12CCC3c4ccc(O)cc4C(=O)CC3C1Cc1c[nH]nc12 (stereo partly shown) [compound 737, 2-Hydroxy-6a-methyl-5,6,6a,8,10,10a,10b,11-octahydro-4bH-7,8-diazo-pentaleno[2,1-a]phenanthren-12-one] | 96 | -9 | IC50 [1, 7]: 0.46 µM |
| C[C@]12CCC3c4ccc(O)cc4CCC3C1Cc1c2n[nH]c1O (stereo partly shown) [compound 820, 6a-Methyl-4b,5,6,6a,8,10,10a,10b,11,12-decahydro-7,8-diaza-pentaleno[2,1-a]phenanthrene-2,9-diol] | 86 | 7 | – |
| CCO/C=C1/CC2C3CC(=O)c4cc(O)ccc4C3CC[C@]2(C)C1=O (stereo partly shown) [compound 749] | 85 | 8 | – |
| Cn1cccc1CNC(=O)C1CC2C3CCc4cc(O)ccc4C3CC[C@]2(C)[C@H]1O (stereo partly shown) [compound 802] | 86 | -7 | – |
| C[C@]12CCC3c4ccc(O)cc4CCC3C1Cc1c2n[nH]c1C(=O)NCC1CCCO1 (stereo partly shown) [compound 892] | – | – | inhibition at 10 µM [1, 5]: 87%; inhibition at 10 µM [2, 6]: -4% |
| C[C@]12CCC3c4ccc(O)cc4CCC3C1Cc1c2n[nH]c1C(F)(F)F (stereo partly shown) [compound 949] | 75 | 36 | – |
| C[C@]12CCC3c4ccc(O)cc4CCC3C1Cc1cccnc12 (stereo partly shown) [compound 663] | 78 | 34 | – |
| CCOC(=O)c1[nH]nc2c1CC1C3CCc4cc(O)ccc4C3CC[C@]21C (stereo partly shown) [compound 782] | 94 | 7 | IC50 [1, 7]: 1.85 µM |
| CCN(C)C(=O)c1[nH]nc2c1CC1C3CCc4cc(O)ccc4C3CC[C@]21C (stereo partly shown) [compound 894] | 88 | 6 | – |
| C[C@]12CCC3c4ccc(O)cc4CCC3C1CC(=N/O)/C2=N\O (stereo partly shown) [compound 338] | 55 | -2 | – |
| C[C@]12CCC3c4ccc(O)cc4CCC3C1CC(C(=O)O)[C@@H]2O (stereo partly shown) [compound 611] | 39 | 4 | – |
| C[C@]12CCC3c4ccc(O)cc4CCC3C1C/C(=C\c1ccco1)C2=O (stereo partly shown) [compound 474] | 26 | 17 | – |
| COc1cc2c(cc1OS(N)(=O)=O)CCC1C2CC[C@]2(C)C(=O)C(C#N)CC12 (stereo partly shown) [compound 210] | 95 | 8 | IC50 [1, 7]: 2.1 µM |
| CCOC(=O)CC1CC2C3CCc4cc(O)ccc4C3CC[C@]2(C)C1=O (stereo partly shown) [compound 573] | 97 | 18 | IC50 [1]: 0.3 µM |
| C[C@]12CCC3c4ccc(O)cc4CCC3C1C/C(=C\c1ccccc1)[C@@H]2O (stereo partly shown) [compound 313] | 26 | 5 | – |
| C[C@]12CCC3c4ccc(O)cc4CCC3C1C/C(=C\c1ccncc1)C2=O (stereo partly shown) [compound 321] | 34 | 25 | – |
| C[C@]12CCC3c4ccc(O)cc4CCC3C1C/C(=C(/O)C(F)(F)F)C2=O (stereo partly shown) [compound 946] | – | – | % inhibition of 17β-HSD1 @ 10 μM ([1]; 10 μM, T-47D cells, E1→E2): 87%; inhibition at 10 µM [1, 5]: 69%; inhibition at 10 µM [2, 6]: -1.5% |
| Cn1ncc2c1[C@@]1(C)CCC3c4ccc(O)cc4CCC3C1C2 (stereo partly shown) [compound 786] | – | – | inhibition at 10 µM [1, 5]: 43%; inhibition at 10 µM [2, 6]: 32% |
| COc1cc2c(cc1O)CCC1C2CC[C@]2(C)C(=O)C(CC(=O)NCc3cccnc3)CC12 (stereo partly shown) [compound 1191] | 96 | 1.2 | IC50 [1, 7]: 0.29 µM |
